From paper PMC11274987, “Synthesis of Chiral Acyclic Pyrimidine Nucleoside Analogues from DHAP-Dependent Aldolases” (Biomolecules, 2024) come the findings set out here.

The target in test [1] is T1, RAMA (Oryctolagus cuniculus, UniProt P00883).
T1 construct: gene ALDOA; commercial native enzyme from rabbit muscle (Sigma-Aldrich)
T1 sequence (P00883 2-364): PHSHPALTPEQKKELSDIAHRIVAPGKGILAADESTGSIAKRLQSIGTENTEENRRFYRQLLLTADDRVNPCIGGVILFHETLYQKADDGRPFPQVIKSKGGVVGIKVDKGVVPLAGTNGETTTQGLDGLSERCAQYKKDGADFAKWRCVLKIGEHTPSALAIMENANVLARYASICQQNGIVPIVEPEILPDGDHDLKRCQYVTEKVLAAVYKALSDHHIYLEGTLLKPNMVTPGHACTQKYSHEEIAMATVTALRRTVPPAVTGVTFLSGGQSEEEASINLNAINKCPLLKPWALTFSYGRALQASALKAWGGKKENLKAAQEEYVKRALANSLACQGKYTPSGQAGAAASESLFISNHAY
Nature of the test: aldol addition, HPLC and NMR of products. Type of test: biochemical. The following applies: acceptor; co-substrate DHAP; 20 mM phosphate pH 6.8, 30 °C.

The target of test [2] is T2, TmRhu-1PA (Thermotoga maritima, UniProt Q9X0G1).
T2 construct: gene TM_1072; recombinant, cloned, expressed and purified as in earlier work (heat step at 80 °C, cobalt salts present)
T2 sequence (Q9X0G1 1-236): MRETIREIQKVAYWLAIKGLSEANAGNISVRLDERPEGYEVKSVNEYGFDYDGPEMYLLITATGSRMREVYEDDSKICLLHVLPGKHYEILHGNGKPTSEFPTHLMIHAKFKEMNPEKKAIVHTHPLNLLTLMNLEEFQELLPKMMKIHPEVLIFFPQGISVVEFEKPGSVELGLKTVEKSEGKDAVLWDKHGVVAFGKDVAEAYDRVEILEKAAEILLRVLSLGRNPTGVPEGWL
Briefly: aldol addition, HPLC and NMR of products. The class given is biochemical. The following applies: acceptor; co-substrate DHAP; 20 mM phosphate pH 6.8, 45 °C.

In the case of `Nc1ccn(CC=O)c(=O)n1` [1b, cytosyl acetaldehyde], the “aldol addition, HPLC and NMR of products” value in test [1] was “A similar reaction profile was observed when the cytosine derivative”. With `Cc1cn(CC=O)c(=O)[nH]c1=O` [1a, thyminyl acetaldehyde], the “aldol addition, HPLC and NMR of products” value in test [2] was “biotransformation with the thymine derivative (1a) and TmRhu-1PA as a biocatalyst”.
